In PubChem BioAssay AID1745844 (Carcinogenic Potency Database (CPDB), 2022):
Where “and” joins values, the source holds several entries; their conditions need not be identical. Equal values may be shown once.

Tested on: rodent lifetime carcinogenesis bioassay, tumor incidence TD50
Experiment: chronic cancer bioassays in animals – CPDB, compiled studies (AID 1745844)

SMILES: FC(F)=C(F)F
- TD50 (mouse, strain B6C3F1, females, inhaled, site: Harderian gland, lesion: adenoma, dosed 95 weeks, study length 95 weeks): 1470 mg/kg/day
- TD50 (mouse, strain B6C3F1, females, inhaled, site: all sites + liver, lesion: histiocytic sarcoma + hemangioma + hemangiosarcoma + hepatocellular adenoma + hepatocellular carcinoma, dosed 95 weeks, study length 95 weeks): 54 mg/kg/day
- TD50 (mouse, strain B6C3F1, females, inhaled, site: all sites, lesion: hemangioma + hemangiosarcoma, dosed 95 weeks, study length 95 weeks): 61.3 mg/kg/day
- TD50 (mouse, strain B6C3F1, females, inhaled, site: all sites, lesion: hemangioma, dosed 95 weeks, study length 95 weeks): 835 mg/kg/day
- TD50 (mouse, strain B6C3F1, females, inhaled, site: all sites, lesion: hemangiosarcoma, dosed 95 weeks, study length 95 weeks): 66.5 mg/kg/day
- TD50 (mouse, strain B6C3F1, females, inhaled, site: all sites, lesion: histiocytic sarcoma, dosed 95 weeks, study length 95 weeks): 176 mg/kg/day
- TD50 (mouse, strain B6C3F1, females, inhaled, site: any site (literature study), lesion: several types, types named in the paper, dosed 95 weeks, study length 95 weeks): 48.4 mg/kg/day
- TD50 (mouse, strain B6C3F1, females, inhaled, site: liver, lesion: hemangioma + hemangiosarcoma, dosed 95 weeks, study length 95 weeks): 61.3 mg/kg/day
- TD50 (mouse, strain B6C3F1, females, inhaled, site: liver, lesion: hemangioma, dosed 95 weeks, study length 95 weeks): 530 mg/kg/day
- TD50 (mouse, strain B6C3F1, females, inhaled, site: liver, lesion: hemangiosarcoma, dosed 95 weeks, study length 95 weeks): 66.5 mg/kg/day
- TD50 (mouse, strain B6C3F1, females, inhaled, site: liver, lesion: hepatocellular adenoma + hepatoblastoma + hepatocellular carcinoma, dosed 95 weeks, study length 95 weeks): 63.3 mg/kg/day
- TD50 (mouse, strain B6C3F1, females, inhaled, site: liver, lesion: hepatocellular adenoma + hepatocellular carcinoma, dosed 95 weeks, study length 95 weeks): 63.3 mg/kg/day
- TD50 (mouse, strain B6C3F1, females, inhaled, site: liver, lesion: hepatocellular adenoma, dosed 95 weeks, study length 95 weeks): 217 mg/kg/day
- TD50 (mouse, strain B6C3F1, females, inhaled, site: liver, lesion: hepatocellular carcinoma, dosed 95 weeks, study length 95 weeks): 80.8 mg/kg/day
- TD50 (mouse, strain B6C3F1, females, inhaled, site: lung, lesion: alveolar/bronchiolar adenoma + alveolar/bronchiolar carcinoma + carcinoma, dosed 95 weeks, study length 95 weeks): 1640 mg/kg/day
- TD50 (mouse, strain B6C3F1, females, inhaled, site: lung, lesion: alveolar/bronchiolar adenoma + alveolar/bronchiolar carcinoma, dosed 95 weeks, study length 95 weeks): 1010 mg/kg/day
- TD50 (mouse, strain B6C3F1, females, inhaled, site: pituitary gland, lesion: pars distalis adenoma, dosed 95 weeks, study length 95 weeks): 1450 mg/kg/day
- TD50 (mouse, strain B6C3F1, males, inhaled, site: Harderian gland, lesion: adenoma + carcinoma, dosed 95 weeks, study length 95 weeks): 1270 mg/kg/day
- TD50 (mouse, strain B6C3F1, males, inhaled, site: Harderian gland, lesion: adenoma, dosed 95 weeks, study length 95 weeks): 1390 mg/kg/day
- TD50 (mouse, strain B6C3F1, males, inhaled, site: all sites + liver, lesion: histiocytic sarcoma + hemangioma + hemangiosarcoma + hepatocellular adenoma + hepatocellular carcinoma, dosed 95 weeks, study length 95 weeks): 71.6 mg/kg/day
- TD50 (mouse, strain B6C3F1, males, inhaled, site: all sites, lesion: hemangioma + hemangiosarcoma, dosed 95 weeks, study length 95 weeks): 88.3 mg/kg/day
- TD50 (mouse, strain B6C3F1, males, inhaled, site: all sites, lesion: hemangioma, dosed 95 weeks, study length 95 weeks): 297 mg/kg/day
- TD50 (mouse, strain B6C3F1, males, inhaled, site: all sites, lesion: hemangiosarcoma, dosed 95 weeks, study length 95 weeks): 109 mg/kg/day
- TD50 (mouse, strain B6C3F1, males, inhaled, site: all sites, lesion: histiocytic sarcoma, dosed 95 weeks, study length 95 weeks): 429 mg/kg/day
- TD50 (mouse, strain B6C3F1, males, inhaled, site: any site (literature study), lesion: several types, types named in the paper, dosed 95 weeks, study length 95 weeks): 69.9 mg/kg/day
- TD50 (mouse, strain B6C3F1, males, inhaled, site: liver, lesion: hemangioma + hemangiosarcoma, dosed 95 weeks, study length 95 weeks): 87 mg/kg/day
- TD50 (mouse, strain B6C3F1, males, inhaled, site: liver, lesion: hemangioma, dosed 95 weeks, study length 95 weeks): 308 mg/kg/day
- TD50 (mouse, strain B6C3F1, males, inhaled, site: liver, lesion: hemangiosarcoma, dosed 95 weeks, study length 95 weeks): 108 mg/kg/day
- TD50 (mouse, strain B6C3F1, males, inhaled, site: liver, lesion: hepatocellular adenoma + hepatoblastoma + hepatocellular carcinoma, dosed 95 weeks, study length 95 weeks): 91 mg/kg/day
- TD50 (mouse, strain B6C3F1, males, inhaled, site: liver, lesion: hepatocellular adenoma + hepatocellular carcinoma, dosed 95 weeks, study length 95 weeks): 91 mg/kg/day
- TD50 (mouse, strain B6C3F1, males, inhaled, site: liver, lesion: hepatocellular adenoma, dosed 95 weeks, study length 95 weeks): 222 mg/kg/day
- TD50 (mouse, strain B6C3F1, males, inhaled, site: liver, lesion: hepatocellular carcinoma, dosed 95 weeks, study length 95 weeks): 190 mg/kg/day
- TD50 (mouse, strain B6C3F1, males, inhaled, site: lung, lesion: alveolar/bronchiolar adenoma + alveolar/bronchiolar carcinoma + carcinoma, dosed 95 weeks, study length 95 weeks): 216 mg/kg/day
- TD50 (mouse, strain B6C3F1, males, inhaled, site: lung, lesion: alveolar/bronchiolar adenoma + alveolar/bronchiolar carcinoma, dosed 95 weeks, study length 95 weeks): 220 mg/kg/day
- TD50 (mouse, strain B6C3F1, males, inhaled, site: lung, lesion: alveolar/bronchiolar adenoma, dosed 95 weeks, study length 95 weeks): 348 mg/kg/day
- TD50 (mouse, strain B6C3F1, males, inhaled, site: lung, lesion: alveolar/bronchiolar carcinoma + carcinoma, dosed 95 weeks, study length 95 weeks): 830 mg/kg/day
- TD50 (mouse, strain B6C3F1, males, inhaled, site: thyroid gland, lesion: follicular-cell adenoma + follicular-cell carcinoma, dosed 95 weeks, study length 95 weeks): 988 mg/kg/day
- TD50 (mouse, strain B6C3F1, males, inhaled, site: thyroid gland, lesion: follicular-cell adenoma, dosed 95 weeks, study length 95 weeks): 1440 mg/kg/day
- TD50 (rat, strain Fischer 344, females, inhaled, site: all sites + liver, lesion: mononuclear-cell leukemia + hemangiosarcoma + hepatocellular adenoma + hepatocellular carcinoma, dosed 103 weeks, study length 104 weeks): 56.3 mg/kg/day
- TD50 (rat, strain Fischer 344, females, inhaled, site: all sites, lesion: hemangiosarcoma, dosed 103 weeks, study length 104 weeks): 886 mg/kg/day
- TD50 (rat, strain Fischer 344, females, inhaled, site: all sites, lesion: mononuclear-cell leukemia, dosed 103 weeks, study length 104 weeks): 228 mg/kg/day
- TD50 (rat, strain Fischer 344, females, inhaled, site: any site (literature study), lesion: several types, types named in the paper, dosed 103 weeks, study length 104 weeks): 287 mg/kg/day
- TD50 (rat, strain Fischer 344, females, inhaled, site: kidney, lesion: tubule adenoma + tubule carcinoma, dosed 103 weeks, study length 104 weeks): 958 mg/kg/day and 1310 mg/kg/day
- TD50 (rat, strain Fischer 344, females, inhaled, site: kidney, lesion: tubule adenoma, dosed 103 weeks, study length 104 weeks): 1510 mg/kg/day
- TD50 (rat, strain Fischer 344, females, inhaled, site: kidney, lesion: tubule carcinoma, dosed 103 weeks, study length 104 weeks): 7380 mg/kg/day
- TD50 (rat, strain Fischer 344, females, inhaled, site: liver, lesion: hemangiosarcoma, dosed 103 weeks, study length 104 weeks): 886 mg/kg/day
- TD50 (rat, strain Fischer 344, females, inhaled, site: liver, lesion: hepatocellular adenoma + hepatoblastoma + hepatocellular carcinoma, dosed 103 weeks, study length 104 weeks): 156 mg/kg/day
- TD50 (rat, strain Fischer 344, females, inhaled, site: liver, lesion: hepatocellular adenoma + hepatocellular carcinoma, dosed 103 weeks, study length 104 weeks): 156 mg/kg/day
- TD50 (rat, strain Fischer 344, females, inhaled, site: liver, lesion: hepatocellular adenoma, dosed 103 weeks, study length 104 weeks): 528 mg/kg/day
- TD50 (rat, strain Fischer 344, females, inhaled, site: liver, lesion: hepatocellular carcinoma, dosed 103 weeks, study length 104 weeks): 251 mg/kg/day
- TD50 (rat, strain Fischer 344, males, inhaled, site: all sites, lesion: mononuclear-cell leukemia, dosed 103 weeks, study length 104 weeks): 59.7 mg/kg/day
- TD50 (rat, strain Fischer 344, males, inhaled, site: any site (literature study), lesion: several types, types named in the paper, dosed 103 weeks, study length 104 weeks): 35.4 mg/kg/day
- TD50 (rat, strain Fischer 344, males, inhaled, site: kidney, lesion: renal tubule adenoma, bilateral + tubule adenoma + tubule carcinoma, dosed 103 weeks, study length 104 weeks): 292 mg/kg/day and 367 mg/kg/day
- TD50 (rat, strain Fischer 344, males, inhaled, site: kidney, lesion: renal tubule adenoma, bilateral + tubule adenoma, dosed 103 weeks, study length 104 weeks): 242 mg/kg/day and 334 mg/kg/day
- TD50 (rat, strain Fischer 344, males, inhaled, site: liver, lesion: hepatocellular adenoma + hepatoblastoma + hepatocellular carcinoma, dosed 103 weeks, study length 104 weeks): 81.6 mg/kg/day
- TD50 (rat, strain Fischer 344, males, inhaled, site: liver, lesion: hepatocellular adenoma + hepatocellular carcinoma, dosed 103 weeks, study length 104 weeks): 81.6 mg/kg/day
- TD50 (rat, strain Fischer 344, males, inhaled, site: liver, lesion: hepatocellular adenoma, dosed 103 weeks, study length 104 weeks): 136 mg/kg/day
- TD50 (rat, strain Fischer 344, males, inhaled, site: liver, lesion: hepatocellular carcinoma, dosed 103 weeks, study length 104 weeks): 163 mg/kg/day
- TD50 (rat, strain Fischer 344, males, inhaled, site: testis, lesion: interstitial-cell adenoma, bilateral + interstitial-cell adenoma, dosed 103 weeks, study length 104 weeks): 27.5 mg/kg/day

SMILES: CN(N=O)C(=O)NCCC[C@H](N)C(=O)O
- TD50 (rat, strain Wistar albino, females, i.p., site: kidney, lesion: epithelial neoplasm, dosed 26 weeks, study length 52 weeks): 0.633 mg/kg/day
- TD50 (rat, strain Wistar albino, females, i.p., site: kidney, lesion: mesenchymal neoplasm, dosed 26 weeks, study length 52 weeks): 0.633 mg/kg/day
- carcinogen call (rat, strain Wistar albino, females, i.p., site: mammary tissue, wider than the gland, lesion: several types, types named in the paper, dosed 26 weeks, study length 52 weeks): positive
- TD50 (rat, strain Wistar albino, females, i.p., site: pancreas, lesion: adenocarcinoma in adenomatous polyp, dosed 26 weeks, study length 52 weeks): 11 mg/kg/day
- TD50 (rat, strain Wistar albino, females, i.p., site: skin, lesion: neoplasm, dosed 26 weeks, study length 52 weeks): 1.42 mg/kg/day
- TD50 (rat, strain Wistar albino, males, i.p., site: Zymbal's gland, lesion: carcinoma, dosed 26 weeks, study length 52 weeks): 11.8 mg/kg/day
- TD50 (rat, strain Wistar albino, males, i.p., site: kidney, lesion: epithelial neoplasm, dosed 26 weeks, study length 52 weeks): 1.04 mg/kg/day
- TD50 (rat, strain Wistar albino, males, i.p., site: kidney, lesion: mesenchymal neoplasm, dosed 26 weeks, study length 52 weeks): 1.57 mg/kg/day
- TD50 (rat, strain Wistar albino, males, i.p., site: pancreas, lesion: adenocarcinoma, dosed 26 weeks, study length 52 weeks): 11 mg/kg/day
- TD50 (rat, strain Wistar albino, males, i.p., site: pancreas, lesion: several types, types named in the paper, dosed 26 weeks, study length 52 weeks): 5.25 mg/kg/day
- TD50 (rat, strain Wistar albino, males, i.p., site: skin, lesion: neoplasm, dosed 26 weeks, study length 52 weeks): 1.04 mg/kg/day

SMILES: CCCN(N=O)C(N)=O
- carcinogen call (rat, strain F344/DuCrj, females, in drinking water, site: thymus gland, lesion: lymphoma, dosed 70 weeks, study length 70 weeks): positive
- carcinogen call (rat, strain F344/DuCrj, females, in drinking water, site: thymus gland, lesion: lymphoma, dosed 75 weeks, study length 75 weeks): positive
- carcinogen call (rat, strain F344/DuCrj, males, in drinking water, site: thymus gland, lesion: lymphoma, dosed 70 weeks, study length 70 weeks): positive
- carcinogen call (rat, strain F344/DuCrj, males, in drinking water, site: thymus gland, lesion: lymphoma, dosed 75 weeks, study length 75 weeks): positive
